Data published in US20090099029A1, “Methods and substrates for conducting assays” (Invitrogen Corporation, priority 2005, published 2009).

biological target: T1, kinases of Table 5 (Homo sapiens, UniProt O14965); assay: Further analysis of a plurality of inhibitors and a plurality of kinases (Table 5 inhibition results); format: biochemical; set-up: scale not given here; conditions: kinase STK6 (Part I, plate C6, Domain 1); inhibitor 100 uM
T1 sequence (O14965 1-403): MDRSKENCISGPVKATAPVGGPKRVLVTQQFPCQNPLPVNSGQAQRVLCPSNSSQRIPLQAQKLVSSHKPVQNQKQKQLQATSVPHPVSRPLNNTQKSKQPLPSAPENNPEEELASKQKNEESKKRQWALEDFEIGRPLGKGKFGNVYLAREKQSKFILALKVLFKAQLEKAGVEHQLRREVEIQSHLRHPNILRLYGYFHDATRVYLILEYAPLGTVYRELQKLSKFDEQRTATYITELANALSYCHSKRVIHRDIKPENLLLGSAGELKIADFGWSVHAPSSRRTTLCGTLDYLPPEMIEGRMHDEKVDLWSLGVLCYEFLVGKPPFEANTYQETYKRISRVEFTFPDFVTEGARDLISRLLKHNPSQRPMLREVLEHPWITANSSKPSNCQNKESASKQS
Excerpt: (§1) The wash solution is then discarded.

Inhibition Results (Level)	SMILES
2	O=c1c(-c2ccc(O)cc2)coc2cc(O)cc(O)c12 [Genistein]
2	CC(C)(C)n1nc(-c2ccc(Cl)cc2)c2c(N)ncnc21 [PP2]

Further lines, the compound ahead of its results:

SMILES	Inhibition Results (Level)
CC(=O)c1c(O)c(C)c(O)c(Cc2c(O)c3c(c(C(=O)/C=C/c4ccccc4)c2O)OC(C)(C)C=C3)c1O [Rottlerin (Mallotoxin)]	2
O=S(=O)(NCCNC/C=C/c1ccc(Br)cc1)c1cccc2cnccc12 [H-89]	0

same assay, conditions: kinase STK6 (Part I, plate C6, Domain 1); inhibitor <3.7 mM

Inhibition Results (Level)	SMILES
0	O=c1c(-c2ccc(O)cc2)coc2cc(O)cc(O)c12 [Genistein]

biological target: kinases of Table 5 (Homo sapiens, UniProt P00519); assay: as above; format: biochemical; set-up: scale not given here; conditions: kinase ABL1 (Part II, plate B6, Domain 1); inhibitor 100 uM
Sequence (P00519 whole entry): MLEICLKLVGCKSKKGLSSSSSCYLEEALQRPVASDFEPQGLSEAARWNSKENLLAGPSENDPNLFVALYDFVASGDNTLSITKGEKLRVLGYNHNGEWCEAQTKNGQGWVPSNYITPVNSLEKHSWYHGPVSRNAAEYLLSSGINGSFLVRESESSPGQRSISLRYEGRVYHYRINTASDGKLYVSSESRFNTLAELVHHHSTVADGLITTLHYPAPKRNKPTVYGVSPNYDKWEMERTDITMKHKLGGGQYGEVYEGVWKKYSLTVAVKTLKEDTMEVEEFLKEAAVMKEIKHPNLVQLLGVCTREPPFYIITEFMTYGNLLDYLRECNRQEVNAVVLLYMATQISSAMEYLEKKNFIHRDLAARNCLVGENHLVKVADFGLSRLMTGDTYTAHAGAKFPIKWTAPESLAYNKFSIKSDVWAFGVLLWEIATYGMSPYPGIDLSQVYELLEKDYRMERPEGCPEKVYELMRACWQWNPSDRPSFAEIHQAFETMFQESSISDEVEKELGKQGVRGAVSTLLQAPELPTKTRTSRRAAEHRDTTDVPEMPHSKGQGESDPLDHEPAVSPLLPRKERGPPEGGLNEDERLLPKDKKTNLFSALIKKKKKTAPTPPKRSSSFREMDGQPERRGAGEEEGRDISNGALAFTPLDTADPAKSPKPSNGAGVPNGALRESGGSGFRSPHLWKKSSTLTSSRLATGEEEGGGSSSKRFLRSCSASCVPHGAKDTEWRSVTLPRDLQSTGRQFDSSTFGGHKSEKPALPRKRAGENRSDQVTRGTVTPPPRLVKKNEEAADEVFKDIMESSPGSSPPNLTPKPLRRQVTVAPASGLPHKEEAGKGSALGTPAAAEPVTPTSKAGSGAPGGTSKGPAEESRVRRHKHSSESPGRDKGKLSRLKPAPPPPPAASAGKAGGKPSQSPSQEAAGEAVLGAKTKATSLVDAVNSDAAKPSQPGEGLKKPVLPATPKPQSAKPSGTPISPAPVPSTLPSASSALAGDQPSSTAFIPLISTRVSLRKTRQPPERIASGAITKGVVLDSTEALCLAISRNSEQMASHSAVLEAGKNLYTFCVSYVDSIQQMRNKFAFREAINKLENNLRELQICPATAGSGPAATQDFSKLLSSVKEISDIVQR
Excerpt: as §1

SMILES	Inhibition Results (Level)
CC(=O)c1c(O)c(C)c(O)c(Cc2c(O)c3c(c(C(=O)/C=C/c4ccccc4)c2O)OC(C)(C)C=C3)c1O [Rottlerin (Mallotoxin)]	0
O=S(=O)(NCCNC/C=C/c1ccc(Br)cc1)c1cccc2cnccc12 [H-89]	0

same assay, conditions: kinase ABL1; concentration not given

Inhibition level	SMILES
0	O=c1c(-c2ccc(O)cc2)coc2cc(O)cc(O)c12 [Genistein]

same assay, conditions: kinase ABL1; inhibitor 100 uM

Inhibition level	SMILES
0	O=c1c(-c2ccc(O)cc2)coc2cc(O)cc(O)c12 [Genistein]

biological target: kinases of Table 5 (Homo sapiens, UniProt P11309); assay: as above; format: biochemical; set-up: scale not given here; conditions: kinase PIM1 (Part I, plate C2, Domain 1); inhibitor 100 uM
Sequence (P11309 whole entry): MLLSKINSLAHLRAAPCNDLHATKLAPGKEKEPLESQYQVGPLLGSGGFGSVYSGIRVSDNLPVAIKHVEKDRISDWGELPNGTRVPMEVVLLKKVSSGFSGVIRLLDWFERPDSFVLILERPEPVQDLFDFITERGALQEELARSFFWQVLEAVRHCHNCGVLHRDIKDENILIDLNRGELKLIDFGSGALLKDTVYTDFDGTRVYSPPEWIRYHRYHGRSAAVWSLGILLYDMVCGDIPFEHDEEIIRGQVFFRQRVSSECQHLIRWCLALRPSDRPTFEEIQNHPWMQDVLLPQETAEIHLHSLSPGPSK
Excerpt: as §1

Inhibition Results (Level)	SMILES
2	O=c1c(-c2ccc(O)cc2)coc2cc(O)cc(O)c12 [Genistein]
2	CC(C)(C)n1nc(-c2ccc(Cl)cc2)c2c(N)ncnc21 [PP2]

Further lines, the compound ahead of its results:

SMILES	Inhibition Results (Level)
CC(=O)c1c(O)c(C)c(O)c(Cc2c(O)c3c(c(C(=O)/C=C/c4ccccc4)c2O)OC(C)(C)C=C3)c1O [Rottlerin (Mallotoxin)]	2
O=S(=O)(NCCNC/C=C/c1ccc(Br)cc1)c1cccc2cnccc12 [H-89]	2

same assay, conditions: kinase PIM1 (Part I, plate C2, Domain 1); inhibitor <3.7 mM

Inhibition Results (Level)	SMILES
0	O=c1c(-c2ccc(O)cc2)coc2cc(O)cc(O)c12 [Genistein]

biological target: T2, kinases of Table 5 (Homo sapiens, UniProt P45985); assay: as above; format: biochemical; set-up: scale not given here; conditions: kinase MAP2K4 (Part I, plate E6, Domain 1); inhibitor 100 uM
T2 sequence (P45985 1-399): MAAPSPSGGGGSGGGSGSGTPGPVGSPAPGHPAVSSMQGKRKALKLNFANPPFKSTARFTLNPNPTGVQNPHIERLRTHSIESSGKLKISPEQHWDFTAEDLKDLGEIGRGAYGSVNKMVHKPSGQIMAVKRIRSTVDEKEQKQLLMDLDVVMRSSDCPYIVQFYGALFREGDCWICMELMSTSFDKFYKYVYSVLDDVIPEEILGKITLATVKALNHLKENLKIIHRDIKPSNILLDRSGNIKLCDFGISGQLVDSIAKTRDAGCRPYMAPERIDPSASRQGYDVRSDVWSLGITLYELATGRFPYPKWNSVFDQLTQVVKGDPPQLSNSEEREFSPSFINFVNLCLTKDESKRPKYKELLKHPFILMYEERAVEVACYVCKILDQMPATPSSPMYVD
Excerpt: as §1

Inhibition Results (Level)	SMILES
2	O=c1c(-c2ccc(O)cc2)coc2cc(O)cc(O)c12 [Genistein]
2	CC(C)(C)n1nc(-c2ccc(Cl)cc2)c2c(N)ncnc21 [PP2]

More lines, now with the values behind:

SMILES	Inhibition Results (Level)
O=c1c(O)c(-c2ccc(O)c(O)c2)oc2cc(O)cc(O)c12 [Quercetin]	0
CC(=O)c1c(O)c(C)c(O)c(Cc2c(O)c3c(c(C(=O)/C=C/c4ccccc4)c2O)OC(C)(C)C=C3)c1O [Rottlerin (Mallotoxin)]	1
O=S(=O)(NCCNC/C=C/c1ccc(Br)cc1)c1cccc2cnccc12 [H-89]	1

same assay, conditions: kinase MAP2K4 (Part I, plate E6, Domain 1); inhibitor <3.7 mM

Inhibition Results (Level)	SMILES
0	O=c1c(-c2ccc(O)cc2)coc2cc(O)cc(O)c12 [Genistein]

biological target: kinases of Table 5 (Homo sapiens, UniProt Q00536); assay: as above; format: biochemical; set-up: scale not given here; conditions: kinase PCTK1 (Part I, plate A3, Domain 0); inhibitor 100 uM
Sequence (Q00536 whole entry): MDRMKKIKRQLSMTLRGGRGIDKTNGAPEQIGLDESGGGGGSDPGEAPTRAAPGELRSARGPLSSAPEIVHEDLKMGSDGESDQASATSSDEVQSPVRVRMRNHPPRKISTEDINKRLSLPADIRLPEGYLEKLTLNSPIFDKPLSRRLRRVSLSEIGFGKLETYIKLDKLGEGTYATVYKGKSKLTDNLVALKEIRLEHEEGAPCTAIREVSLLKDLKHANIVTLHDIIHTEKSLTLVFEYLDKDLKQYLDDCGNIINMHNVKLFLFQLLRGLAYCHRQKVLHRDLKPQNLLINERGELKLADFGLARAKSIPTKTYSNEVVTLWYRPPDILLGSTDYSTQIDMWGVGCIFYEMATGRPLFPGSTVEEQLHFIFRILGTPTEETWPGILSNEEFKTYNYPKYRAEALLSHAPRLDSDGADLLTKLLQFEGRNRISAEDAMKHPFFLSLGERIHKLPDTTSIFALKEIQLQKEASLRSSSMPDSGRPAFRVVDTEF
Excerpt: as §1

Inhibition Results (Level)	SMILES
1	O=c1c(-c2ccc(O)cc2)coc2cc(O)cc(O)c12 [Genistein]
1	CC(C)(C)n1nc(-c2ccc(Cl)cc2)c2c(N)ncnc21 [PP2]

The next lines start with the compound.

SMILES	Inhibition Results (Level)
O=c1c(O)c(-c2ccc(O)c(O)c2)oc2cc(O)cc(O)c12 [Quercetin]	0
CC(=O)c1c(O)c(C)c(O)c(Cc2c(O)c3c(c(C(=O)/C=C/c4ccccc4)c2O)OC(C)(C)C=C3)c1O [Rottlerin (Mallotoxin)]	0
O=S(=O)(NCCNC/C=C/c1ccc(Br)cc1)c1cccc2cnccc12 [H-89]	2

biological target: kinases of Table 5 (Homo sapiens, UniProt Q7KZI7); assay: as above; format: biochemical; set-up: scale not given here; conditions: kinase MARK2 (Part I, plate C4, Domain 1); inhibitor 100 uM
Sequence (Q7KZI7 whole entry): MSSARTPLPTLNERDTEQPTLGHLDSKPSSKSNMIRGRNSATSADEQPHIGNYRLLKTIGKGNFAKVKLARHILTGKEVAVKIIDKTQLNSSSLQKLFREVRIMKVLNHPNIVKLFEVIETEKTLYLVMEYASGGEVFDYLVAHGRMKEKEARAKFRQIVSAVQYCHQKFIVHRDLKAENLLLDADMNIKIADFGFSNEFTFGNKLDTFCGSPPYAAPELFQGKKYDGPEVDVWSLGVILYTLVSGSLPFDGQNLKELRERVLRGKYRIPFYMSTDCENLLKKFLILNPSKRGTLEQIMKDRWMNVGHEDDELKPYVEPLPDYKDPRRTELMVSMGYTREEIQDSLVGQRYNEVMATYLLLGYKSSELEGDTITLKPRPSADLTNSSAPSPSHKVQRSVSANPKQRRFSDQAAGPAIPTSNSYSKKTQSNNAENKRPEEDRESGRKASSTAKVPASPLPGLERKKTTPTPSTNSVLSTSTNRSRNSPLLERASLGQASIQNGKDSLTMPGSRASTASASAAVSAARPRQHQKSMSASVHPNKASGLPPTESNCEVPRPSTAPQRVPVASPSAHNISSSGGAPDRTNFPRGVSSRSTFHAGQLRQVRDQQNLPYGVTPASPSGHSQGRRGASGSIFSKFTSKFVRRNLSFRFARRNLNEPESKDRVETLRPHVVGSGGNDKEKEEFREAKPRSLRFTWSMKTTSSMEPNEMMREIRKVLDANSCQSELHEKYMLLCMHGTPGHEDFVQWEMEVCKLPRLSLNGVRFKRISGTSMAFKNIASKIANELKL
Excerpt: as §1

Inhibition Results (Level)	SMILES
2	O=c1c(-c2ccc(O)cc2)coc2cc(O)cc(O)c12 [Genistein]
2	CC(C)(C)n1nc(-c2ccc(Cl)cc2)c2c(N)ncnc21 [PP2]

More lines, now with the values behind:

SMILES	Inhibition Results (Level)
CC(=O)c1c(O)c(C)c(O)c(Cc2c(O)c3c(c(C(=O)/C=C/c4ccccc4)c2O)OC(C)(C)C=C3)c1O [Rottlerin (Mallotoxin)]	2
O=S(=O)(NCCNC/C=C/c1ccc(Br)cc1)c1cccc2cnccc12 [H-89]	2

biological target: T3, kinases of Table 5 (Homo sapiens, UniProt Q8IVH8); assay: as above; format: biochemical; set-up: scale not given here; conditions: kinase MAP4K3 (Part I, plate C5, Domain 1); inhibitor 100 uM
T3 sequence (Q8IVH8 1-894): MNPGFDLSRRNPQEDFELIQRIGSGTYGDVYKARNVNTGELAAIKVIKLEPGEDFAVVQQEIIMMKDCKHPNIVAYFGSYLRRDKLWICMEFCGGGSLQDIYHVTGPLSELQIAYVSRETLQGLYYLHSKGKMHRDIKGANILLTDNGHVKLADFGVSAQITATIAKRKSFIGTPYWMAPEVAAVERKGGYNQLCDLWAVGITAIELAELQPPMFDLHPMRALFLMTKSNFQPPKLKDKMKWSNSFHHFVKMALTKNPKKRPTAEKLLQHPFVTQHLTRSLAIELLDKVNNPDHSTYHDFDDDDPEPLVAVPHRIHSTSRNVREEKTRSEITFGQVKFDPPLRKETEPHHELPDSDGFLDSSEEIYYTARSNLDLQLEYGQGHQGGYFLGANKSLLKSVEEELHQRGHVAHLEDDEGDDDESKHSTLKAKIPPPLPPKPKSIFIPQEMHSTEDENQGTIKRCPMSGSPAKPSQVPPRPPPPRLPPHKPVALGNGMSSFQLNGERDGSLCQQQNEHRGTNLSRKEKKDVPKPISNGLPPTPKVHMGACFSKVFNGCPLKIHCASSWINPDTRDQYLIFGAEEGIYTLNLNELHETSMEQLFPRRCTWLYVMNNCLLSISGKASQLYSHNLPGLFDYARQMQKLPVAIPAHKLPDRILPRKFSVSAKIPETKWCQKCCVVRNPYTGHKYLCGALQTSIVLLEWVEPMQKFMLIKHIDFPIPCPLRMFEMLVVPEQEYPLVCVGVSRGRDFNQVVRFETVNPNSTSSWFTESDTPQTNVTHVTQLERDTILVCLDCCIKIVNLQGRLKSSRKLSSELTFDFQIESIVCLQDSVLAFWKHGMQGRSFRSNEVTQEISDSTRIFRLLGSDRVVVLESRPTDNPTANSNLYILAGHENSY
Excerpt: as §1

Inhibition Results (Level)	SMILES
2	O=c1c(-c2ccc(O)cc2)coc2cc(O)cc(O)c12 [Genistein]
2	CC(C)(C)n1nc(-c2ccc(Cl)cc2)c2c(N)ncnc21 [PP2]

The remaining lines, values behind:

SMILES	Inhibition Results (Level)
O=c1c(O)c(-c2ccc(O)c(O)c2)oc2cc(O)cc(O)c12 [Quercetin]	1
CC(=O)c1c(O)c(C)c(O)c(Cc2c(O)c3c(c(C(=O)/C=C/c4ccccc4)c2O)OC(C)(C)C=C3)c1O [Rottlerin (Mallotoxin)]	1
O=S(=O)(NCCNC/C=C/c1ccc(Br)cc1)c1cccc2cnccc12 [H-89]	1

biological target: T4, kinases of Table 5 (Homo sapiens, UniProt Q96KB5); assay: as above; format: biochemical; set-up: scale not given here; conditions: kinase TOPK (Part I, plate G7, Domain 1); inhibitor 100 uM
T4 sequence (Q96KB5 1-322): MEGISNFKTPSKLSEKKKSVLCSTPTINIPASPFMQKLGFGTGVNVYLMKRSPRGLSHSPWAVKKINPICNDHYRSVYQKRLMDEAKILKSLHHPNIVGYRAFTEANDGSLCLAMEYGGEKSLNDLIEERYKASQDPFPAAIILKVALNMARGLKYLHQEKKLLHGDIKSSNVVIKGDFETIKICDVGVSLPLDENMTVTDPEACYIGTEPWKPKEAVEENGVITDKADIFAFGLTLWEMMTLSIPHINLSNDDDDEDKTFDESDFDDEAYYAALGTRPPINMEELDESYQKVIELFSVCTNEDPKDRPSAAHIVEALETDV
Excerpt: as §1

Inhibition Results (Level)	SMILES
2	O=c1c(-c2ccc(O)cc2)coc2cc(O)cc(O)c12 [Genistein]
2	CC(C)(C)n1nc(-c2ccc(Cl)cc2)c2c(N)ncnc21 [PP2]

Further lines, the compound ahead of its results:

SMILES	Inhibition Results (Level)
O=c1c(O)c(-c2ccc(O)c(O)c2)oc2cc(O)cc(O)c12 [Quercetin]	0
CC(=O)c1c(O)c(C)c(O)c(Cc2c(O)c3c(c(C(=O)/C=C/c4ccccc4)c2O)OC(C)(C)C=C3)c1O [Rottlerin (Mallotoxin)]	2
O=S(=O)(NCCNC/C=C/c1ccc(Br)cc1)c1cccc2cnccc12 [H-89]	2

same assay, conditions: kinase TOPK (Part I, plate G7, Domain 1); inhibitor <3.7 mM

Inhibition Results (Level)	SMILES
0	O=c1c(-c2ccc(O)cc2)coc2cc(O)cc(O)c12 [Genistein]

biological target: kinases of Table 5 (Homo sapiens, UniProt Q9Y6E0); assay: as above; format: biochemical; set-up: scale not given here; conditions: kinase STK24 (Part II, plate F11, Domain 0); inhibitor 100 uM
Sequence (Q9Y6E0 whole entry): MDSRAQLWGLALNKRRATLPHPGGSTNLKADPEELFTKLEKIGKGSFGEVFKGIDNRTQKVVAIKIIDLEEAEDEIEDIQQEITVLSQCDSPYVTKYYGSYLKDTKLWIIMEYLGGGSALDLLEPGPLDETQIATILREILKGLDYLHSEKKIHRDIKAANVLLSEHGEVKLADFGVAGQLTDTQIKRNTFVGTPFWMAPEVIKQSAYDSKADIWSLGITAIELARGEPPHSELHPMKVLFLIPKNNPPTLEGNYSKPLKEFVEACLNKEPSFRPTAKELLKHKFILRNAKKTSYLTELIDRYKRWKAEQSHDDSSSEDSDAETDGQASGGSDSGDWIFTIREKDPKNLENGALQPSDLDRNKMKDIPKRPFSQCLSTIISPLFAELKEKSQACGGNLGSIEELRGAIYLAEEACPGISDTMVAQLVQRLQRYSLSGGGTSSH
Excerpt: as §1

SMILES	Inhibition Results (Level)
CC(=O)c1c(O)c(C)c(O)c(Cc2c(O)c3c(c(C(=O)/C=C/c4ccccc4)c2O)OC(C)(C)C=C3)c1O [Rottlerin (Mallotoxin)]	1
O=S(=O)(NCCNC/C=C/c1ccc(Br)cc1)c1cccc2cnccc12 [H-89]	2

same assay, conditions: kinase STK24; inhibitor 100 uM

Inhibition level	SMILES
2	O=c1c(-c2ccc(O)cc2)coc2cc(O)cc(O)c12 [Genistein]
2	CC(C)(C)n1nc(-c2ccc(Cl)cc2)c2c(N)ncnc21 [PP2]
